# Experimental data reported in patent publication US10246429B2, “Vinyl fluoride cyclopropyl fused thiazin-2-amine compounds as beta-secretase inhibitors and methods of use” (AMGEN INC., priority 2015, dated 2019).
# Assays:
# [1] = target: T1, BACE1 (Homo sapiens (Human), UniProt P56817); assay: BACE1 cell assay; type: cell-based
# Target sequence in this assay (P56817 46-501, species assumed): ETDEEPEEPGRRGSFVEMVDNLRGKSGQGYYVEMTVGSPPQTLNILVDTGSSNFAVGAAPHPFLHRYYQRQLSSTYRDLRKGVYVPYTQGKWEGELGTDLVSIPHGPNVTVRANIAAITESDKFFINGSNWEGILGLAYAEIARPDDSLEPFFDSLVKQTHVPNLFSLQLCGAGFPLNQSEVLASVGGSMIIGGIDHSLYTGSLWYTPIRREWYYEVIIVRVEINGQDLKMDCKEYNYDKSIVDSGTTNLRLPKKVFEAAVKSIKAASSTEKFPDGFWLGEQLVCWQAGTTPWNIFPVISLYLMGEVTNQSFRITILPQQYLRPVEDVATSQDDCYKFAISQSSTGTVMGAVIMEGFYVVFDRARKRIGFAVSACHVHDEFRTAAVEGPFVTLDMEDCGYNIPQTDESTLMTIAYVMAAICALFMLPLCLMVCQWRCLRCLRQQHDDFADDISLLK
# [2] = target: BACE2 (Homo sapiens (Human), UniProt Q9Y5Z0); assay: In vitro enzymatic BACE2 FRET assay; type: biochemical; details: read-out: IC50 IP (μM) BACE2 Enzyme
# BACE2, sequence (Q9Y5Z0 63-518): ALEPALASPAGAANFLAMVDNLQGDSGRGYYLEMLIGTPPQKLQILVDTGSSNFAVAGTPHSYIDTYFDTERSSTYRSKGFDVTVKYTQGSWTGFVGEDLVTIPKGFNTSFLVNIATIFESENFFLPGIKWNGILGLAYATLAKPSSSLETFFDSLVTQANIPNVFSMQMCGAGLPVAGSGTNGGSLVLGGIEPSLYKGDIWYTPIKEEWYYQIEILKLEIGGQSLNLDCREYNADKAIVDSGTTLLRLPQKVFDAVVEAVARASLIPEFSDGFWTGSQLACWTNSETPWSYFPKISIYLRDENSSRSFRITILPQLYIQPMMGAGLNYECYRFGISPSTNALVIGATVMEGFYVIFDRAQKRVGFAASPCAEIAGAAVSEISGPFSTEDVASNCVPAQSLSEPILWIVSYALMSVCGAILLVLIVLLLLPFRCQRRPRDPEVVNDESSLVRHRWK
# From the text: (§1) In Vitro Enzymatic BACE1 and BACE2 FRET (Fluorescence Resonance Energy Transfer) Assays (Enzyme Assay Data in Table 1)
# [3] = target: T1, BACE1; assay: In vitro enzymatic BACE1 FRET assay; type: biochemical; details: read-out: IC50 IP (μM) BACE1 Enzyme
# Target sequence in this assay (P56817 46-501): as the sequence (P56817 46-501, species assumed) above
# From the text: as §1
# [4] = target: Cathepsin D (CatD) (Homo sapiens (Human), UniProt P07339); assay: CatD assay; type: biochemical; details: read-out: IC50 IP (μM) CatD
# Cathepsin D (CatD), sequence (P07339 65-412, species assumed): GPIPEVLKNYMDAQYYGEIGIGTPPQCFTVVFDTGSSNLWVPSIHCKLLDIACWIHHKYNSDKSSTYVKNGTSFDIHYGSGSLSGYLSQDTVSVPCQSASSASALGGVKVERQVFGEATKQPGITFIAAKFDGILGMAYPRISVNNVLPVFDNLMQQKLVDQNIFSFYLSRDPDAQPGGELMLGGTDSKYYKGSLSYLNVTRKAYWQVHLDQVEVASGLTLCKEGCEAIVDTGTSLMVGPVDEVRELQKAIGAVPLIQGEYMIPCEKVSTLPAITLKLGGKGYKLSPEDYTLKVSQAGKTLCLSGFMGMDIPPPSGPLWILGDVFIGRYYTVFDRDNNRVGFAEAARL
# [5] = read-out: IC50 IP (μM) BACE1 Cell
Compound,"IC50 [1, 5]",IC50 [2],IC50 [3],IC50 [4],IC50 [1]
"C#Cc1ccc(/C(F)=C/c2ccc(F)c([C@@]3(C)N=C(N)S[C@@]4(C(=O)N(C)C)C[C@H]43)c2)nc1 [Example 110, (1S,5S,6S)-3-amino-5-(5-((Z)-2-(5-ethynylpyridin-2-yl)-2-fluorovinyl)-2-fluorophenyl)-N,N,5-trimethyl-2-thia-4-azabicyclo[4.1.0]hept-3-ene-1-carboxamide]",0.0127 µM,0.0144 µM,0.00324 µM,403 µM,–
"C[C@]1(c2cc(/C=C(\F)c3ccc(Cl)cn3)ccc2F)N=C(N)S[C@@]2(CC#N)C[C@H]21 [Example 114, 2-((1R,5S,6S)-3-amino-5-(5-((Z)-2-(5-chloropyridin-2-yl)-2-fluorovinyl)-2-fluorophenyl)-5-methyl-2-thia-4-azabicyclo[4.1.0]hept-3-en-1-yl)acetonitrile]",0.446 µM,0.0555 µM,0.021 µM,668 µM,–
"CC1CCN1C(=O)[C@]12C[C@H]1[C@@](C)(c1cc(/C=C(\F)c3ccc(Cl)cn3)ccc1F)N=C(N)S2 (stereo partly drawn) [Example 116, ((1S,5S,6S)-3-amino-5-(5-((Z)-2-(5-chloropyridin-2-yl)-2-fluorovinyl)-2-fluorophenyl)-5-methyl-2-thia-4-azabicyclo[4.1.0]hept-3-en-1-yl)(2-methylazetidin-1-yl)methanone]",0.00929 µM,0.0119 µM,0.00623 µM,107 µM,–
"C[C@]1(c2cc(/C=C(\F)c3ccc(Cl)cn3)ccc2F)N=C(N)S[C@@]2(C(=O)Nc3ccccc3)C[C@H]21 [Example 118, (1S,5S,6S)-3-amino-5-(5-((Z)-2-(5-chloropyridin-2-yl)-2-fluorovinyl)-2-fluorophenyl)-5-methyl-N-phenyl-2-thia-4-azabicyclo[4.1.0]hept-3-ene-1-carboxamide]",0.291 µM,0.047 µM,0.0299 µM,13.4 µM,–
"C[C@@H]1CCN1C(=O)[C@]12C[C@H]1[C@@](C)(c1cc(/C=C(\F)c3ccc(Cl)cn3)ccc1F)N=C(N)S2 [Example 120, ((1S,5S,6S)-3-amino-5-(5-((Z)-2-(5-chloropyridin-2-yl)-2-fluorovinyl)-2-fluorophenyl)-5-methyl-2-thia-4-azabicyclo[4.1.0]hept-3-en-1-yl)((R)-2-methylazetidin-1-yl)methanone]",0.0267 µM,0.0108 µM,0.00275 µM,132 µM,–
"C[C@]1(c2cc(/C=C(\F)c3ccc(C#N)cn3)ccc2F)N=C(N)S[C@@]2(C(=O)N3Cc4ccccc4C3)C[C@H]21 [Example 129, 6-((Z)-2-(3-((1S,5S,6S)-3-amino-1-(isoindoline-2-carbonyl)-5-methyl-2-thia-4-azabicyclo[4.1.0]hept-3-en-5-yl)-4-fluorophenyl)-1-fluorovinyl)nicotinonitrile bis(2,2,2-trifluoroacetate)]",0.0165 µM,0.0311 µM,0.00117 µM,133 µM,–
"COC(=O)[C@H]1CCCN1C(=O)[C@]12C[C@H]1[C@@](C)(c1cc(/C=C(\F)c3ccc(C#N)cn3)ccc1F)N=C(N)S2 [Example 130, (R)-methyl 1-((1S,5S,6S)-3-amino-5-(5-((Z)-2-(5-cyanopyridin-2-yl)-2-fluorovinyl)-2-fluorophenyl)-5-methyl-2-thia-4-azabicyclo[4.1.0]hept-3-ene-1-carbonyl)pyrrolidine-2-carboxylate bis(2,2,2-trifluoroacetate)]",0.00747 µM,0.121 µM,0.0034 µM,120 µM,–
"CC1(C)CC2CC(C)(CN2C(=O)[C@]23C[C@H]2[C@@](C)(c2cc(/C=C(\F)c4ccc(C#N)cn4)ccc2F)N=C(N)S3)C1 (stereo partly drawn) [Example 136, 6-((Z)-2-(3-((1S,5S,6S)-3-amino-5-methyl-1-(1,3,3-trimethyl-6-azabicyclo[3.2.1]octane-6-carbonyl)-2-thia-4-azabicyclo[4.1.0]hept-3-en-5-yl)-4-fluorophenyl)-1-fluorovinyl)nicotinonitrile]",0.0154 µM,0.0363 µM,0.00582 µM,4.18 µM,–
"C[C@]1(c2cc(/C=C(\F)c3ccc(C#N)cn3)ccc2F)N=C(N)S[C@@]2(C(=O)N3CCNC(=O)CC3)C[C@H]21 [Example 142, 6-((Z)-2-(3-((1S,5S,6S)-3-amino-5-methyl-1-(5-oxo-1,4-diazepane-1-carbonyl)-2-thia-4-azabicyclo[4.1.0]hept-3-en-5-yl)-4-fluorophenyl)-1-fluorovinyl)nicotinonitrile]",0.00219 µM,0.0173 µM,0.00178 µM,400 µM,–
"CC1CCN(C(=O)[C@]23C[C@H]2[C@@](C)(c2cc(/C=C(\F)c4ccc(C#N)cn4)ccc2F)N=C(N)S3)CC1 [Example 147, 6-((Z)-2-(3-((1S,5S,6S)-3-amino-5-methyl-1-(4-methylpiperidine-1-carbonyl)-2-thia-4-azabicyclo[4.1.0]hept-3-en-5-yl)-4-fluorophenyl)-1-fluorovinyl)nicotinonitrile]",0.003 µM,0.00486 µM,0.000793 µM,93.9 µM,–
"CNC(=O)[C@]12C[C@H]1[C@@](C)(c1cc(/C=C(\F)c3cnc(OCC(C)=O)cn3)ccc1F)N=C(N)S2 [Example 152, (1S,5S,6S)-3-amino-5-(2-fluoro-5-((Z)-2-fluoro-2-(5-(2-oxopropoxy)pyrazin-2-yl)vinyl)phenyl)-N,5-dimethyl-2-thia-4-azabicyclo[4.1.0]hept-3-ene-1-carboxamide]",0.0846 µM,1.51 µM,0.052 µM,71.8 µM,–
"CN(C)C(=O)[C@]12C[C@H]1[C@@](C)(c1cc(/C=C(\F)c3cnc(OCc4ncco4)cn3)ccc1F)N=C(N)S2 [Example 154, (1S,5S,6S)-3-amino-5-(2-fluoro-5-((Z)-2-fluoro-2-(5-(oxazol-2-ylmethoxy)pyrazin-2-yl)vinyl)phenyl)-N,N,5-trimethyl-2-thia-4-azabicyclo[4.1.0]hept-3-ene-1-carboxamide]",0.0049 µM,0.0455 µM,0.00798 µM,107 µM,–
"CN(C)C(=O)[C@]12C[C@H]1[C@@](C)(c1cc(/C=C(\F)c3cnc(OCC#N)cn3)ccc1F)N=C(N)S2 [Example 158, (1S,5S,6S)-3-amino-5-(5-((Z)-2-(5-(cyanomethoxy)pyrazin-2-yl)-2-fluorovinyl)-2-fluorophenyl)-N,N,5-trimethyl-2-thia-4-azabicyclo[4.1.0]hept-3-ene-1-carboxamide]",0.119 µM,0.0927 µM,0.116 µM,400 µM,–
"CNC(=O)[C@]12C[C@H]1[C@@](C)(c1cc(/C=C(\F)c3cnc(Br)cn3)ccc1F)N=C(N)S2 [Example 163, (1S,5S,6S)-3-amino-5-(5-((Z)-2-(5-bromopyrazin-2-yl)-2-fluorovinyl)-2-fluorophenyl)-N,5-dimethyl-2-thia-4-azabicyclo[4.1.0]hept-3-ene-1-carboxamide]",–,0.266 µM,0.0249 µM,69.7 µM,0.291 µM
"CC#Cc1cnc(/C(F)=C/c2ccc(F)c([C@@]3(C)N=C(N)S[C@@]4(C(=O)NC)C[C@H]43)c2)cn1 [Example 164, (1S,5S,6S)-3-amino-5-(2-fluoro-5-((Z)-2-fluoro-2-(5-(prop-1-yn-1-yl)pyrazin-2-yl)vinyl)phenyl)-N,5-dimethyl-2-thia-4-azabicyclo[4.1.0]hept-3-ene-1-carboxamide]",–,0.229 µM,0.0125 µM,156 µM,0.0497 µM
